Experimental data published in patent US6525059B1, “Substituted pyrazoles as p38 kinase inhibitors” (G. D. Searle & Company, priority 1998, dated 2003).
Several values for one entry are separate records, joined by “and”; a condition that tells them apart may be missing. Equal values may be shown once. Read-outs that look alike come from different tables or passages of the source.

Assays:
human TNF = assay: TNF inhibition: human whole blood assay; type: cell-based; conditions: Homo sapiens, LPS, read-out: TNF Inhibition-Human Whole Blood Assay
[1] = molecular target: T1, human GST-p38 kinase alpha (Homo sapiens, UniProt Q16539); assay: p38 kinase in vitro assay, second format, phosphorylation of EGFRP with 33P-ATP; type: biochemical; conditions: read-out: p38α Kinase Assay IC50
T1 construct: The coding region of the human p38a cDNA was obtained by PCR-amplification from RNA isolated from the human monocyte cell line THP.1; made in house; host or cells: E. coli DH10B
T1 sequence (Q16539 whole entry): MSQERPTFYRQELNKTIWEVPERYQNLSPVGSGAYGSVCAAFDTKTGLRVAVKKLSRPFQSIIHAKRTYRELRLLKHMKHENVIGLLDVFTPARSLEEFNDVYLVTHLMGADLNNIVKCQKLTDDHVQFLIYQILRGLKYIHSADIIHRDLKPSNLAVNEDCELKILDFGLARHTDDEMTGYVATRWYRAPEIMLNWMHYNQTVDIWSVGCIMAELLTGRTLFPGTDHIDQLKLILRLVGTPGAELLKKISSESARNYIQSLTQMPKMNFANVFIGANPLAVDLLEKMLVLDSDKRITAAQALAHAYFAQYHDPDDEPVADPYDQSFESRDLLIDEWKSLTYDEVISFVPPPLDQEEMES
Summary of the method: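 Activated human GST-p38α (pre-activated with GST-MKK6, 1 h, 30 °C) phosphorylates EGFR 21-mer peptide (200 μM) with 50 μM ATP plus γ-33P-ATP, pH 7.5, 60 min at room temperature. Unreacted ATP removed by AG 1×8 resin; supernatant scintillation-counted.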

TNF-α = assay: Rat assay: LPS-challenged rats, serum TNF-α by ELISA; type: in vivo; conditions: Rattus norvegicus, po; for inhibition in vivo at 3 mg/kg: Table 8, dose 3.0 mg/kg; for inhibition in vivo at 3 mg/kg / inhibition in vivo at 5 mg/kg / inhibition in vivo at 1 mg/kg: read-out: Rat LPS Assay % Inhibition; for inhibition in vivo at 1 mg/kg: Table 10, dose 1.0 mg/kg
TNF alpha = assay: Mouse model of LPS-induced TNF alpha production; type: in vivo; conditions: 30 mpk oral gavage
Method: TNF alpha was induced in 10-12 week old BALB/c female mice by tail vein injection with 100 ng lipopolysaccharide (from S. Typhosa) in 0.2 ml saline. One hour later mice were bled from the retroorbital sinus and TNF concentrations in serum from clotted blood were quantified by ELISA.
Efficacy was determined at each time point as percent inhibition of serum TNF levels relative to LPS injected mice that received vehicle only
wherein in the dose is milligram per kilogram (mpk) administered by oral gavage and the predose time indicates the number of hours before LPS challenge when the compound is administered.

SMILES	melting point	IC50 (human TNF; Table 10, human whole blood) [nM]	IC50 ([1]; Table 10, 10% DMSO, @ 1.0 hour) [nM]	inhibition in vivo at 20 mg/kg (TNF-α; Table 10, dose 20.0 mg/kg) [%]	inhibition in vivo at 5 mg/kg (TNF-α; Table 10, dose 5.0 mg/kg) [%]	further results
Clc1ccc(-c2n[nH]c(N3CCN(C4CC4)CC3)c2-c2ccncc2)cc1 [Example A-322, 1-[5-(4-chlorophenyl)-4-(4-pyridinyl)-1H-pyrazol-3-yl)-4-cyclopropylpiperazine]	264 to 265 °C					IC50 (human TNF; Table 8, human whole blood): 4200 nM; IC50 ([1]; Table 8, 10% DMSO): 150 nM and 250 nM; inhibition in vivo at 3 mg/kg (TNF-α): 51.5%
Fc1ccc(-c2[nH]ncc2-c2ccnc(Nc3ccccc3F)n2)cc1 [Example A-325, N-(2-fluorophenyl)-4-[3-(4-fluorophenyl)-1H-pyrazol-4-yl]-2-pyrimidinamine]	239 to 240 °C					IC50 (human TNF; Table 8, human whole blood): 57 nM; IC50 ([1]; Table 8, 10% DMSO): < 100 nM; inhibition in vivo at 3 mg/kg (TNF-α): 25%; inhibition in vivo at 30 mg/kg (TNF-α; Table 8, dose 30.0 mg/kg): 11%
COc1ccccc1Nc1nccc(-c2cn[nH]c2-c2ccc(F)cc2)n1 [Example A-326, 4-[3-(4-fluorophenyl)-1H-pyrazol-4-yl]-N-(2-methoxyphenyl)-2-pyrimidinamine]	265 °C (dec.)					IC50 (human TNF; Table 8, human whole blood): > 25000 nM; IC50 ([1]; Table 8, 10% DMSO): 970 nM; inhibition in vivo at 10 mg/kg (TNF-α; Table 8, dose 10.0 mg/kg): 0%
CN1CCN(c2n[nH]c(-c3cccc(Cl)c3)c2-c2ccncc2)CC1 [Example A-327, 1-[5-(3-chlorophenyl)-4-(4-pyridinyl)-1-H-pyrazol-3-yl]-4-methylpiperazine]	229 to 231 °C					IC50 (human TNF; Table 8, human whole blood): 180 nM; IC50 ([1]; Table 8, 10% DMSO): 150 nM; inhibition in vivo at 20 mg/kg (TNF-α; Table 8, dose 20.0 mg/kg): 83%
C#CCN1CCN(c2n[nH]c(-c3ccc(Cl)cc3)c2-c2ccncc2)CC1 [Example A-333, 1-[5-(4-chlorophenyl)-4-(4-pyridinyl)-1H-pyrazol-3-yl]-4-(2-propynyl)piperazine]	247 °C (dec.)					IC50 (human TNF; Table 8, human whole blood): 585 nM; IC50 ([1]; Table 8, 10% DMSO): 52 nM; inhibition in vivo at 5 mg/kg (TNF-α; Table 8, dose 5.0 mg/kg): 69%
Cc1cc(C(=O)C(=C2SCS2)c2ccncc2)ccc1Cl [Example A-391, 1-(4-chloro-3-methylphenyl)-2-1,3-dithietan-2-ylidene-2-pyridin-4-yl-ethanone]	164 to 165 °C	> 25000	4830	53		
Cc1cc(-c2n[nH]c(N3CCN(C)CC3)c2-c2ccncc2)ccc1Cl [Example A-407, 1-[5-(3-methyl-4-chlorophenyl)-4-(4-pyridinyl)-1H-pyrazol-3-yl]-4-methylpiperazine]	236.7 to 239.3 °C	3860	180	82	21	
Cc1ccccc1-c1n[nH]c(N2CCN(C)CC2)c1-c1ccncc1 [Example A-408, 1-[5-(2-tolyl)-4-(4-pyridinyl)-1H-pyrazol-3-yl]-4-methylpiperazine]	244 to 244.2 °C	11700	5590	49	20	
CN1CCN(c2[nH]nc(-c3cccc(Br)c3)c2-c2ccncc2)CC1 [Example A-409, 1-[5-(3-bromophenyl)-4-(4-pyridinyl)-1H-pyrazol-3-yl]-4-methylpiperazine]	222.5 to 223.4 °C	5270	210	89	41	
COc1ccc(-c2[nH]nc(N3CCN(C)CC3)c2-c2ccncc2)cc1Cl [Example A-413]	272.7 to 276.4 °C	6510	910	85	45	
CN1CCN(c2[nH]nc(-c3ccc(C(C)(C)C)cc3)c2-c2ccncc2)CC1 [Example A-414, 1-[5-(4-tert-butylphenyl)-4-(4-pyridinyl)-1H-pyrazol-3-yl]-4-methylpiperazine]	243.6 to 244.3 °C	11200	9510	14	3	
CN1CCN(c2n[nH]c(-c3ccc(I)cc3)c2-c2ccncc2)CC1 [Example A-417, 1-[5-(4-iodophenyl)-4-(4-pyridinyl)-1H-pyrazol-3-yl]-4-methylpiperazine]	265.2 to 265.8 °C	12000	190	70	40	
Nc1[nH]nc(-c2ccc(Cl)cc2)c1-c1ccncc1 [Example A-427, 5-amino-3-(4-chlorophenyl)-4-(pyridin-4-yl)pyrazole]	> 300 °C	24100	190	77	56	
CSc1[nH]nc(-c2ccc(Cl)cc2)c1-c1ccncc1 [Example A-435]	250.2 °C	> 25000	350	14	0	inhibition in vivo at 1 mg/kg (TNF-α): 10%
CN1CCN(c2[nH]nc(-c3ccc(Br)cc3)c2-c2ccncc2)CC1 [Example A-439]	270.2 to 270.7 °C	5630	150	93	58	
CC(C)(C)OC(=O)N1CCC(Oc2[nH]nc(-c3ccc(Cl)cc3)c2-c2ccncc2)CC1 [Example A-441]	230.1 to 231.8 °C	> 25000	1210	62	14	
CN1CCC(Oc2[nH]nc(-c3ccc(Cl)cc3)c2-c2ccncc2)CC1 [Example A-448, 3-(4-chlorophenyl)-5-[(1-methylpiperidin-4-yl)-oxy]-4-pyridin-4-yl-1H-pyrazole]	255.9 to 256.8 °C	120	84	97	73	
N#CCSc1[nH]nc(-c2ccc(Cl)cc2)c1-c1ccncc1 [Example A-456]	230 to 230.5 °C	980	120	53	48	inhibition in vivo at 1 mg/kg (TNF-α): 36%
Clc1ccc(-c2n[nH]c(SC3CCNCC3)c2-c2ccncc2)cc1 [Example A-459]	211.1 to 211.2 °C	260	27	80	54	inhibition in vivo at 1 mg/kg (TNF-α): 0%
COCCSc1[nH]nc(-c2ccc(Cl)cc2)c1-c1ccncc1 [Example A-469, 3-(4-chlorophenyl)-5-[(2-methoxyethyl)-thio]-4pyridin-4-yl-pyrazole]	189.2 to 190.2 °C	7170	95	68	51	
Clc1ccc(-c2n[nH]c(SCC3OCCO3)c2-c2ccncc2)cc1 [Example A-473]	197 to 198.2 °C	560	170	58		
O=C(CSc1[nH]nc(-c2ccc(Cl)cc2)c1-c1ccncc1)N1CCOCC1 [Example A-476]	215.4 to 215.5 °C	970	1010	35		
C#CCSc1[nH]nc(-c2ccc(Cl)cc2)c1-c1ccncc1 [Example A-478]	212.7 to 213.2 °C	490	180			
C=CCSc1[nH]nc(-c2ccc(Cl)cc2)c1-c1ccncc1 [Example A-479]	207.3 to 208.1 °C	2970	72			
Clc1ccc(-c2n[nH]c(SCCc3c[nH]c4ccccc34)c2-c2ccncc2)cc1 [Example A-481]	211.9 to 213.2 °C	> 25000	200			
[O-][S+](c1[nH]nc(-c2ccc(Cl)cc2)c1-c1ccncc1)C1CCNCC1 (stereo not drawn) [Example A-482]	189.1 to 190.8 °C	690	1620	15		
N#CCCSc1[nH]nc(-c2ccc(Cl)cc2)c1-c1ccncc1 [Example A-483]	205.7 to 206.5 °C	510	300			
C#CCNC(=O)Cn1nc(-c2ccc(F)cc2)c(-c2ccncc2)c1C [Example B-2310]						Mouse LPS Model % TNF inhib @ dose @ predose time (TNF alpha): 50% @ 30 mpk @ -6h
